Reference: a flash point compilation (Sun et al. 2020)

Q: Which flash point does the source give for `NC1CCCC1` [cyclopentylamine] here?
A: Its flash point is 12 °C.

Q: Which flash point does the source give for `CC1CCCO1` (centres undefined) [2-methyltetrahydrofuran] here?
A: The flash point was -12 °C.

Q: Which flash point does the source give for `CC(=O)OCC(C)C` [isobutylacetate] here?
A: Its flash point is 18 °C.

Q: Which flash point does the source give for `C#CCCCC#C` [1,6-heptadiyne] here?
A: The flash point was 9 °C.

Q: For `CC(C)(C)Cl` [2-chloro-2-methylpropane], which flash point is on record?
A: Its flash point is -23 °C.

Q: With `CCc1cccc(O)c1` [3-ethylphenol] as the compound, how does the flash point read?
A: Its flash point is 94 °C.

Q: For `C/C=C/CCCCC` [trans-2-octene], which flash point is on record?
A: Its flash point is 14 °C.

Q: For `C[C@H]1CCCC[C@H]1O` (relative stereo) [cis-2-methylcyclohexanol], which flash point is on record?
A: Its flash point is 59 °C.

Q: For `CCCCC(C)(CC)CC` [3-ethyl-3-methylheptane], which flash point is on record?
A: The flash point was 41 °C.

Q: With `CCC(C)CCCC(C)C` (centres undefined) [2,6-dimethyloctane] as the compound, how does the flash point read?
A: Its flash point is 34 °C.

Q: With `C#CCC(C)C` [4-methyl-1-pentyne] as the compound, how does the flash point read?
A: Its flash point is -24 °C.

Q: Which flash point does the source give for `CCC(C)=O` [2-butanone] here?
A: The flash point was -7 °C.

Q: With `C=COCCC` [propylvinylether] as the compound, how does the flash point read?
A: The flash point was -22 °C.

Q: Which flash point does the source give for `CCC/C=C/CCC` [trans-4-octene] here?
A: The flash point was 8 °C.

Q: For `C[C@@H]1CCCC[C@@H]1C` [cis-1,2-dimethylcyclohexane], which flash point is on record?
A: Its flash point is 12 °C.

Q: With `COC(=O)c1ccccc1C(=O)OC` [dimethylphthalate] as the compound, how does the flash point read?
A: The flash point was 150 °C.

Q: With `CCC(=O)OC(C)c1ccccc1` (centres undefined) [1-phenylethylpropionate] as the compound, how does the flash point read?
A: Its flash point is 106 °C.

Q: For `CC(=O)OC(C)c1ccccc1` (centres undefined) [1-phenylethylacetate], which flash point is on record?
A: Its flash point is 91 °C.

Q: Which flash point does the source give for `SCc1ccccc1` [benzylmercaptan] here?
A: Its flash point is 70 °C.

Q: For `CCOC(OCC)OCC` [triethoxymethane], which flash point is on record?
A: Its flash point is 35 °C.

Q: With `CC(C)(C)CCC(C)(C)C` [2,2,5,5-tetramethylhexane] as the compound, how does the flash point read?
A: The flash point was 16 °C.

Q: For `CCCCCCS` [1-hexanethiol], which flash point is on record?
A: Its flash point is 30 °C.

Q: Which flash point does the source give for `C=CCCO` [3-buten-1-ol] here?
A: Its flash point is 32 °C.

Q: For `CCCCCCCI` [1-iodoheptane], which flash point is on record?
A: Its flash point is 79 °C.

Q: Which flash point does the source give for `CCCOC(=O)C(C)C` [propyl2-methylpropanoate] here?
A: The flash point was 30 °C.

Q: Which flash point does the source give for `C=C(C)CO` [2-methyl-2-propen-1-ol] here?
A: Its flash point is 33 °C.

Q: Which flash point does the source give for `CCCCCCCCCS` [1-nonanethiol] here?
A: The flash point was 79 °C.

Q: For `CCC(=O)CC(C)CC` (centres undefined) [5-methyl-3-heptanone], which flash point is on record?
A: Its flash point is 43 °C.

Q: With `C=CCCCCCCCCC` [1-undecene] as the compound, how does the flash point read?
A: The flash point was 54 °C.

Q: Which flash point does the source give for `CCCCC(=O)OC(=O)CCCC` [pentanoicanhydride] here?
A: The flash point was 101 °C.

Q: Which flash point does the source give for `OC1CCCCCCC1` [cyclooctanol] here?
A: The flash point was 88 °C.

Q: Which flash point does the source give for `CCCC(C)(C)C(C)(C)C` [2,2,3,3-tetramethylhexane] here?
A: The flash point was 31 °C.

Q: With `CCCCC=O` [pentanal] as the compound, how does the flash point read?
A: The flash point was 8 °C.

Q: For `CCCC(C)CC(=O)O` (centres undefined) [3-methylhexanoicacid], which flash point is on record?
A: The flash point was 103 °C.

Q: With `Cc1ccsc1` [3-methylthiophene] as the compound, how does the flash point read?
A: The flash point was 11 °C.

Q: For `Cc1cccs1` [2-methylthiophene], which flash point is on record?
A: The flash point was 8 °C.

Q: With `CCC#CCC` [3-hexyne] as the compound, how does the flash point read?
A: The flash point was -14 °C.

Q: Which flash point does the source give for `CCCCNC(C)=O` [N-butylacetamide] here?
A: The flash point was 115 °C.

Q: Which flash point does the source give for `CC/C=C\CC` [cis-3-hexene] here?
A: The flash point was -25 °C.

Q: For `CC1OCCO1` [2-methyl-1,3-dioxolane], which flash point is on record?
A: Its flash point is -2 °C.

Q: With `OCCCCO` [1,4-butanediol] as the compound, how does the flash point read?
A: The flash point was 121 °C.

Q: For `CCCC(Br)CC` (centres undefined) [3-bromohexane], which flash point is on record?
A: The flash point was 40 °C.

Q: With `C=CCCCCC(C)C` [7-methyl-1-octene] as the compound, how does the flash point read?
A: Its flash point is 18 °C.

Q: With `CC(C)CCc1ccccc1` [isopentylbenzene] as the compound, how does the flash point read?
A: Its flash point is 62 °C.

Q: Which flash point does the source give for `C[C@H]1CCC[C@H](C)C1` (relative stereo) [trans-1,3-dimethylcyclohexane] here?
A: Its flash point is 8 °C.

Q: For `CC1CCCC(=O)C1` (centres undefined) [3-methylcyclohexanone], which flash point is on record?
A: The flash point was 48 °C.

Q: For `CCC(C)NC(C)CC` (centres undefined) [di-sec-butylamine], which flash point is on record?
A: The flash point was 24 °C.

Q: With `O=CC1CCCC1` [cyclopentanecarboxaldehyde] as the compound, how does the flash point read?
A: Its flash point is 28 °C.

Q: For `OCCc1ccccc1` [2-phenylethanol], which flash point is on record?
A: The flash point was 102 °C.

Q: For `C=C(C)CC(C)(C)C` [2,4,4-trimethyl-1-pentene], which flash point is on record?
A: The flash point was -4 °C.

Q: With `C=CC(=C)C` [isoprene] as the compound, how does the flash point read?
A: Its flash point is -48 °C.

Q: With `CCc1ccccc1O` [2-ethylphenol] as the compound, how does the flash point read?
A: The flash point was 85 °C.

Q: With `Cc1ccccc1Br` [2-bromotoluene] as the compound, how does the flash point read?
A: Its flash point is 78 °C.

Q: For `C=CCSCC` [allylethylsulfide], which flash point is on record?
A: Its flash point is 16 °C.

Q: For `Cc1ccncc1` [4-picoline], which flash point is on record?
A: Its flash point is 38 °C.

Q: For `CCc1cccc(C)c1N` [2-ethyl-6-methylaniline], which flash point is on record?
A: Its flash point is 102 °C.

Q: With `COC(=O)OC` [dimethylcarbonate] as the compound, how does the flash point read?
A: Its flash point is 14 °C.

Q: Which flash point does the source give for `CCCCCCCCCCO` [1-decanol] here?
A: The flash point was 108 °C.

Q: With `COCC(C)C` [isobutylmethylether] as the compound, how does the flash point read?
A: The flash point was -29 °C.

Q: With `CCCCCOC(C)=O` [pentylacetate] as the compound, how does the flash point read?
A: The flash point was 39 °C.

Q: For `CCN(C=O)CC` [N,N-diethylformamide], which flash point is on record?
A: The flash point was 65 °C.

Q: For `CCC(CC)CO` [2-ethyl-1-butanol], which flash point is on record?
A: Its flash point is 57 °C.

Q: With `CC(C)CC(C)C` [2,4-dimethylpentane] as the compound, how does the flash point read?
A: Its flash point is -12 °C.

Q: Which flash point does the source give for `C=C(C)C(=C)C` [2,3-dimethyl-1,3-butadiene] here?
A: The flash point was -22 °C.
